Measurements reported in PubChem BioAssay (NCI).
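Grown in 96-well plates, cells were treated for 48 hours with each compound at five concentrations. Insufficient inhibition: endpoint recorded as highest concentration tested. The concentration for full growth arrest is given as TGI.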

How the values were obtained:
Assay in all cases: NCI anticancer screen, dose series, 48 h
[1] = tested on: HL-60(TB) leukemia
[2] = tested on: IGROV1 ovarian
[3] = tested on: SK-MEL-2 melanoma
[4] = tested on: NCI-H522 lung
[5] = tested on: HS 578T breast
[6] = tested on: DU-145 prostate
[7] = tested on: OVCAR-8 ovarian
[8] = tested on: MALME-3M melanoma
[9] = tested on: NCI/ADR-RES ovarian
[10] = tested on: A498 renal
[11] = tested on: NCI-H460 lung
[12] = tested on: OVCAR-3 ovarian
[13] = tested on: SK-MEL-5 melanoma
[14] = tested on: MDA-MB-435
[15] = tested on: MDA-MB-231 breast
[16] = tested on: U251 CNS
[17] = tested on: A549 NSCLC
[18] = tested on: HOP-92 NSCLC
[19] = tested on: COLO 205 colon
[20] = tested on: SR leukemia
[21] = tested on: OVCAR-4 ovarian
[22] = tested on: HCC-2998 colon
[23] = tested on: HCT-116 colon
[24] = tested on: HOP-62 NSCLC
[25] = tested on: NCI-H23 lung
[26] = tested on: LOX IMVI melanoma
[27] = tested on: ACHN renal
[28] = tested on: SN12C renal
[29] = tested on: RXF 393 renal
[30] = tested on: OVCAR-5 ovarian
[31] = tested on: SNB-75 CNS
[32] = tested on: CCRF-CEM leukemia
[33] = tested on: BT-549 breast
[34] = tested on: SW-620 colon
[35] = tested on: SF-539 CNS
[36] = tested on: MDA-N
[37] = tested on: UACC-62 melanoma
[38] = tested on: SK-MEL-28 melanoma
[39] = tested on: UO-31 renal
[40] = tested on: HT29 colon
[41] = tested on: SK-OV-3 ovarian
[42] = tested on: CAKI-1 renal
[43] = tested on: SF-295 CNS
[44] = tested on: NCI-H226 lung
[45] = tested on: RPMI-8226 leukemia
[46] = tested on: EKVX NSCLC
[47] = tested on: SF-268 CNS
[48] = tested on: HCT-15 colon
[49] = tested on: KM12 colon
[50] = tested on: MOLT-4 leukemia
[51] = tested on: MCF7 breast
[52] = tested on: UACC-257 melanoma
[53] = tested on: M14 melanoma
[54] = tested on: K-562 leukemia
[55] = tested on: T-47D breast
[56] = tested on: 786-0 renal
[57] = tested on: PC-3 prostate
[58] = tested on: SNB-19 CNS
[59] = tested on: TK-10 renal

`O=[N+]([O-])C(=C(Sc1ccccc1)Sc1ccccc1)C(Cl)=C(Cl)Cl` showed a TGI [1] of 0.813 µM, a TGI [2] of 2.95 µM and a TGI [3] of 5.86 µM. The TGI [4] was 0.143 µM, the TGI [5] was 17.6 µM and the TGI [6] was 3.43 µM. For the same compound, the TGI [7] was 0.831 µM, the TGI [8] was 1.37 µM and the TGI [9] was 1.9 µM. For the same compound, the TGI [10] was 6.94 µM, the TGI [11] was 16.6 µM and the TGI [12] was 1.31 µM. For the same compound, the TGI [13] was 3.58 µM, the TGI [14] was 1.3 µM and the TGI [15] was 0.408 µM. The TGI [16] was 4.21 µM, the TGI [17] was 6.59 µM and the TGI [18] was 5.99 µM. It also gave a TGI [19] of 0.697 µM, a TGI [20] of 0.564 µM and a TGI [21] of 1.46 µM. It also gave a TGI [22] of 4.4 µM, a TGI [23] of 0.125 µM and a TGI [24] of 4.09 µM. The TGI [25] was 2.91 µM, the TGI [26] was 1.09 µM and the TGI [27] was 0.895 µM. For the same compound, the TGI [28] was 1.35 µM, the TGI [29] was 1.99 µM and the TGI [30] was 1.48 µM. For the same compound, the TGI [31] was 10.7 µM, the TGI [32] was 0.0419 µM and the TGI [33] was 4.61 µM. For the same compound, the TGI [34] was 0.228 µM, the TGI [35] was 5.81 µM and the TGI [36] was 0.675 µM. For the same compound, the TGI [37] was 1.94 µM, the TGI [38] was 1.09 µM and the TGI [39] was 0.402 µM. It also gave a TGI [40] of 0.487 µM, a TGI [41] of 24.6 µM and a TGI [42] of 1.61 µM. The TGI [43] was 28.3 µM, the TGI [44] was 1.31 µM and the TGI [45] was 0.0712 µM. The TGI [46] was 5.15 µM, the TGI [47] was 5.37 µM and the TGI [48] was 1.02 µM. The TGI [49] was 7.03 µM, the TGI [50] was 0.216 µM and the TGI [51] was 1.05 µM. The TGI [52] was 1.1 µM, the TGI [53] was 1.17 µM and the TGI [54] was 0.701 µM. It also gave a TGI [55] of 1.14 µM, a TGI [56] of 0.188 µM and a TGI [57] of 5.78 µM. It also gave a TGI [58] of 24.8 µM and a TGI [59] of 0.326 µM.
`O=C1CCC(NC(=O)c2ccccc2)C(=O)N1` (stereo not given) was tested, and the TGI [2] was > 100 µM, the TGI [3] was > 100 µM and the TGI [4] was > 100 µM. For the same compound, the TGI [5] was > 100 µM, the TGI [6] was > 100 µM and the TGI [7] was > 100 µM. For the same compound, the TGI [8] was > 100 µM, the TGI [9] was > 100 µM and the TGI [10] was > 100 µM. For the same compound, the TGI [11] was > 100 µM, the TGI [12] was > 100 µM and the TGI [13] was > 100 µM. The TGI [14] was > 100 µM, the TGI [15] was > 100 µM and the TGI [16] was > 100 µM. The TGI [17] was > 100 µM, the TGI [18] was > 100 µM and the TGI [19] was > 100 µM. For the same compound, the TGI [20] was > 100 µM, the TGI [21] was > 100 µM and the TGI [22] was > 100 µM. The TGI [23] was > 100 µM, the TGI [24] was > 100 µM and the TGI [25] was > 100 µM. For the same compound, the TGI [26] was > 100 µM, the TGI [27] was > 100 µM and the TGI [28] was > 100 µM. The TGI [29] was > 100 µM, the TGI [30] was > 100 µM and the TGI [31] was > 100 µM. The TGI [33] was > 100 µM, the TGI [34] was > 100 µM and the TGI [35] was > 100 µM. For the same compound, the TGI [36] was > 100 µM, the TGI [37] was > 100 µM and the TGI [38] was > 100 µM. The TGI [39] was > 100 µM, the TGI [40] was > 100 µM and the TGI [41] was > 100 µM. For the same compound, the TGI [42] was > 100 µM, the TGI [43] was > 100 µM and the TGI [44] was > 100 µM. For the same compound, the TGI [45] was > 100 µM, the TGI [46] was > 100 µM and the TGI [47] was > 100 µM. For the same compound, the TGI [48] was > 100 µM, the TGI [49] was > 100 µM and the TGI [50] was 16.9 µM. The TGI [51] was > 100 µM, the TGI [52] was > 100 µM and the TGI [53] was > 100 µM. For the same compound, the TGI [55] was > 100 µM, the TGI [56] was > 100 µM and the TGI [57] was > 100 µM. For the same compound, the TGI [58] was > 100 µM and the TGI [59] was > 100 µM.
